Results taken from patent US20100184809A1, “Heterocyclic FXR Binding Compounds” (PHENEX PHARMACEUTICALS AG, priority 2006, published 2010).
Values after ≈ are worked out from the molar mass of the structure shown. Read-outs that look alike come from different tables or passages of the source.

Columns and labels:
[1] = Mouse microsomal stability assay; type: in vitro ADME; settings: pH 7.4; mouse liver microsomes, 37° C.
Experimental: In vitro assays were performed to evaluate the metabolic stability of test items in liver microsomes originating from mouse. Preparation of working standards of test items: Working solutions were prepared for each calibration level by appropriate dilution of the corresponding stock solution, depending on each compound's solubility in acetonitrile or acetonitrile/water. Calibration standards were prepared by spiking 196 μl standard matrix with 4 μl of the corresponding working solution. The standard matrix consists of 0.15 mg/ml of microsomal protein in phosphate buffer (100 mM pH 7.4), the final standard solutions contain 2% acetonitrile. The samples and standard solutions were extracted with ethyl acetate, isolation of the compounds was performed by addition of 600 μl ethyl acetate containing the internal standard (0.1 μM) to 200 μl sample and calibration standard. After vigorously shaking (10 minutes) and centrifugation (5000 g) the aqueous phase was separated by freezing in an acetone/dry ice bath and the organic phase is evaporated to dryness using a vacuum centrifuge. Samples were reconstituted in 200 μl acetonitrile/water mix (1:1 v/v) and subsequently subjected to LC-MS/MS. The incubation solution (180 μl) consisted of 90 μl of a microsomal suspension of 0.33 mg/ml of protein in phosphate buffer 100 mM pH 7.4 and 90 μl NADP-regenerating system. The reaction was initiated by the addition of 20 μl of test compound (in 20% acetonitrile) to the preincubated microsomes/buffer mix at 37° C. 200 μl samples were removed from the incubation after 0, 5, 10, and 30 minutes and processed for ethyl acetate extraction as described above. Negative controls using boiled microsomes (boiling water bath, 25 minutes) without regenerating system were run in parallel. The amount of compound in the samples is expressed as percentage of remaining compound compared to time point zero (=100%). These percentages were plotted against the corresponding time points. Intrinsic clearance (CLint) and half-life (t1/2) estimates were determined using the rate of parent disappearance and following formula (1) and (2). (1) CLint=(−k)×V×fu. (2) t1/2=In2/−k. Where CLint=intrinsic clearance [μl/min/mg protein], t1/2=half life [min], k=slope from the linear regression of log [test compound] versus time plot [1/min]. V=6666.7; fu=unbound fraction in the blood. Applying this protocol gave microsomal stabilities for examples and reference compounds as listed below in Table 9: […]

PAMPA permeability assay = type: in vitro ADME; settings: % of compound found in the receiver compartment after 16 hours; PBS pH 7.4, 5% DMSO, 23° C.
Experimental: Artificial membrane permeability was determined as follows: Tested compounds were dissolved to 10 mM in 100% DMSO. Permeability of compounds was measured in PBS (pH 7.4), 5% DMSO at 23° C. Safire (Tecan) plate reader was used for measurement the UV/Vis absorption. Protocol: Dilute stocks of tested compounds and controls with PBS to 1.67 mM and mix well by pipeitting, add 280 μl of PBS, 5% DMSO to acceptor plate, add 5 μl of 2% L-α-Phosphatidylcholine suspension in dodecane to the membrane of donor plate, Immediately add 98 μl of PBS to donor plate and make the sandwich with acceptor plate. Add 42 μl of tested compounds and controls dilutions to […], cover the plate, place into camera and incubate for 16 hours. Make the equilibrium plate, add 225 μl of PBS, 3,7% DMSO and 25 μl of tested compounds and controls dilutions to UV plate. After 16 hours pull the donor plate out and transfer 250 μl from acceptor plate to UV plate. Scan UV plate on Safire (Tecan) plate reader from […]. Permeability is reported in % of compound found in the receiver compartment after the incubation period.

[2] = Aqueous solubility assay, Protocol B, shake-flask method; type: physicochemical; settings: aqueous buffer, 10 mM PBS buffer pH 7.4, 1% MeOH, room temperature, read-out: Aqueous solubility pH 7.4 (μM) (±standard deviation), shake-flask method
Experimental: Protocol B, shake-flask method:
Sample preparation: Sample and standard solution preparation is performed by mixing equal volumes of acetonitrile containing the internal standard (1 μM final concentration) with sample and calibration standard solutions (100 μl). After vigorously shaking (10 seconds) the samples are centrifuged (6000 g) for 5 minutes at 20° C. Aliquots of the particle-free supernatants are transferred to 200 μl sample vials and subsequently subjected to LC-MS/MS. Assay procedure: Test concentration was 100 μM in 10 mM PBS buffer pH 7.4 with a final MeOH concentration of 1%. The volume of the incubation solution was 500 μl. Depending on each compound's solubility in MeOH, the stock concentration and the incubation concentration was adapted. The test solutions in quadruplicates were shaken at 300 rpm over a 20 hours period at room temperature, followed by centrifugation at 20000 g for 30 minutes to separate the solid phase. 100 μl of particle free sample are added to 100 μl acetonitrile containing the internal standard. The aqueous solubility of the compounds was determined by measuring the concentration of the PBS buffer supernatant by HPLC-MS/MS.

[3] = Aqueous solubility assay, Protocol A, nephelometry method; type: physicochemical; settings: PBS with 5% DMSO, aqueous with cosolvent or surfactant or cyclodextrin, kinetic from dmso stock, PBS pH 7.4, 5% DMSO
Experimental: Aqueous solubility of compounds was determined by nephelometry or by the shake-flask method as follows:
Protocol A, nephelometry method:
Solubility of compounds was measured in PBS (pH 7.4), 5% DMSO at 23° C. Nepheloskan Ascent (Thermo Electron Corporation) nephelometer was used for measurement of light scattering. Tested compounds were dissolved in DMSO to 10 mM. Prior to measurement the compounds were further diluted with PBS in the wells to final compound concentrations of 100, 70, 50, 35, 25, 17, 12 and <10 μg/ml.
The plates were incubated at room temperature for 24 hours to reach equilibrium and the scattered light was measured. Assay validation: Aqueous solubility of acetylsalicylic acid was determined to validate the assay.
The following compounds of Table 2 exemplify such solubility with “−−” meaning solubility<2 μM, “+” meaning 2 μM solubility 100 μM and “++” meaning solubility

[4] = The Merck index, 10th edition; cited from earlier work

half-life [1] | microsomal CLint [1] | PAMPA Permeability (PAMPA permeability assay) | solubility at 20 h [2] | solubility at 24 h ([3]; 23° C., 24 hours, read-out: Aqueous solubility pH 7.4) | solubility at 24 h ([3]; 23 °C, at the day of experiment, read-out: Aqueous solubility (assay validation)) | SMILES | Aqueous solubility, reported literature value [4]
22 min | 207 µL/min/mg | 32% | 72.4 µM (≈ 35.9 µg/mL) | 2 to 100 µM |  | CC(C)c1onc(-c2c(Cl)cccc2Cl)c1CCc1ccc(Oc2ccc(C(=O)O)cc2)cc1 [Compound A, reference compound] | 
 |  |  |  |  | > 100 µg/mL | CC(=O)Oc1ccccc1C(=O)O [acetylsalicylic acid, reference compound] | at least 2,17 mg/ml
